pEC50, pIC50: −log10 of the molar value.
Tests used:
Assay type in all cases: cell-based
[1] = target: T1, LPA1 (Homo sapiens, UniProt Q92633); experiment: Ca Flux LPA1 assay; set-up: the full-length cDNA for human LPA1 is obtained by PCR of the reverse transcription reaction; expressed in transfected cells
[2] = target: T1, LPA1; experiment: LPA1 Migration Assay (Oris); set-up: host or cells: primary fibroblasts (lung, dermal), HFL-1, 3T3 and CHO cells expressing LPA1R; conditions: read-out: Cell Migration EC50
Outline: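 Antagonist inhibition was derived by 4-parameter logistic fitting of migrated-cell counts against compound concentration. Dye-loaded, 12-24 h serum-starved fibroblasts, HFL-1, 3T3 or CHO cells expressing LPA1R moved into an Oris detection zone in response to LPA or serum, then were fixed and counted on a high-content reader.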

[3] = target: T2, LPA/S1P GPCR of interest (Homo sapiens, UniProt Q92633); experiment: Beta-Arrestin based assay (PathHunter)
T2 construct: host or cells: CHO
Outline: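 EA Parental CHO cells (DiscoverX) were transfected with FuGENE (Roche) using CMV promoter-driven DNA constructs encoding the LPA/S1P GPCR of interest fused to a ProLink tag. Beta-arrestin recruitment in agonist mode was assessed 24-48 hrs later with PathHunter kits. Tests ran in quadruplicate in white 384 well plates, and end point luminescence was fit to a 4 parameter logistic function.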

T2 sequence (Q92633 whole entry): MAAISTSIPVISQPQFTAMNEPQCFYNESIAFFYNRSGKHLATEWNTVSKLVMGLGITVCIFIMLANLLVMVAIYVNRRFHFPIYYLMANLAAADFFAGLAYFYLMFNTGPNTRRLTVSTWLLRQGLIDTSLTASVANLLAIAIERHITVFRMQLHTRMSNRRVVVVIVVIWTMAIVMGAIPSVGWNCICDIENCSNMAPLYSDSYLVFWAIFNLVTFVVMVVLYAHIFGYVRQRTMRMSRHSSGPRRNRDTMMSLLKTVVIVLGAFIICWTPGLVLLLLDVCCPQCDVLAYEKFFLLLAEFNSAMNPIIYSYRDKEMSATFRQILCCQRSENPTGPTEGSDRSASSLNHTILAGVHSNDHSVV
T1 sequence (Q92633 whole entry): as above

SMILES	pIC50 [1]	pEC50 [2]	pEC50 [3]
Cc1nsc(-c2ccc(-c3ccc(C4(C(=O)O)CC4)cc3)cc2)c1NC(=O)OC(c1ccccc1)C(F)(F)F (single isomer, unassigned) [IT078]	6.30 to 7.30	6.30 to 7.30	
CCC(C)OC(=O)Nc1c(C)noc1-c1ccc(-c2ccc(Oc3ccccc3C(=O)O)cc2)cc1 (single isomer, unassigned) [IT494]	> 7.30	6.30 to 7.30	> 7.30
C[C@@H](OC(=O)Nc1c(-c2ccc(-c3ccc(Oc4ccccc4C(=O)O)cc3)cc2)oc2ccccc12)c1ccccc1 (single isomer, unassigned) [IT495]	< 6.30	6.30 to 7.30	> 7.30
C[C@@H](OC(=O)Nc1c(-c2ccc(-c3ccc(C4(C(=O)O)CCOCC4)cc3)cc2)cnn1C)c1ccccc1 [IT027]	6.30 to 7.30	< 6.30	6.30 to 7.30
Cc1nnn(-c2cc(F)c(-c3ccc(C4(C(=O)O)CCOCC4)cc3)cc2F)c1NC(=O)O[C@H](C)c1ccccc1 [IT030]	< 6.30	< 6.30	< 6.30
C[C@@H](OC(=O)Nc1c(C(F)(F)F)nnn1-c1ccc(-c2ccc(C3(C(=O)O)CC3)cc2)cc1)c1ccccc1 [IT072]	6.30 to 7.30	< 6.30	
Cc1nsc(-c2ccc(C3CCC(C4(C(=O)O)CC4)CC3)cc2)c1NC(=O)O[C@H](C)c1ccccc1 (stereo partly drawn) [IT091]	6.30 to 7.30	< 6.30	
C[C@@H](OC(=O)Nc1c(C#Cc2nc3sc(C4(C(=O)O)CC4)cc3s2)cnn1C)c1ccccc1 [IT095]	> 7.30		
C[C@@H](OC(=O)Nc1c(C#Cc2cc3sc(C4(C(=O)NS(C)(=O)=O)CC4)cc3s2)cnn1C)c1ccccc1 [IT098]	> 7.30		
Cc1noc(C#Cc2nc3sc(C4(C(=O)O)CC4)cc3s2)c1NC(=O)O[C@H](C)c1ccccc1 [IT102]	> 7.30	6.30 to 7.30	
C[C@@H](OC(=O)Nc1c(C#Cc2sc3cc(C4(C(=O)O)CC4)sc3c2C(F)(F)F)cnn1C)c1ccccc1 [IT103]	> 7.30	6.30 to 7.30	
C[C@@H](OC(=O)Nc1c(C#Cc2cc3sc(C4(c5nn[nH]n5)CC4)cc3s2)cnn1C)c1ccccc1 [IT104]	> 7.30	6.30 to 7.30	> 7.30
C[C@@H](OC(=O)Nc1c(-c2ccc(-c3ccc(C4(C(=O)OC5OC(C(=O)O)C(O)C(O)C5O)CC4)cc3)cc2)cnn1C)c1ccccc1 (stereo partly drawn) [IT105]	6.30 to 7.30	6.30 to 7.30	6.30 to 7.30
C[C@@H](OC(=O)Nc1ccncc1C#Cc1cc2sc(C3(C(=O)O)CC3)cc2s1)c1ccccc1 [IT106]	> 7.30	< 6.30	6.30 to 7.30
Cc1c(C2(C(=O)O)CC2)sc2cc(C#Cc3cnn(C)c3NC(=O)O[C@H](C)c3ccccc3)sc12 [IT107]	> 7.30	6.30 to 7.30	> 7.30
C[C@@H](OC(=O)Nc1sncc1C#Cc1cc2sc(C3(C(=O)O)CC3)cc2s1)c1ccccc1 [IT108]	< 6.30	< 6.30	< 6.30
Cc1noc(-c2ccc(-c3nc4sc(C5(C(=O)O)CC5)cc4s3)cc2)c1NC(=O)O[C@H](C)c1ccccc1 [IT111]	6.30 to 7.30	6.30 to 7.30	> 7.30
C[C@@H](OC(=O)Nc1c(-c2ccc(-c3ccc(C4(C(=O)O)CC4)c4c3CCC4)cc2)cnn1C)c1ccccc1 [IT112]	> 7.30	6.30 to 7.30	> 7.30
Cn1ncc(C#Cc2cc3sc(C4(C(=O)O)CC4)cc3s2)c1NC(=O)O[C@@H](c1ccccc1)C(F)(F)F [IT114]	6.30 to 7.30	> 7.30	> 7.30
Cc1noc(-c2cc3sc(C#CC4(C(=O)O)CC4)cc3s2)c1NC(=O)O[C@H](C)c1ccccc1 [IT117]	> 7.30	6.30 to 7.30	> 7.30
C[C@@H](OC(=O)Nc1c(-c2cc3sc(-c4ccc(C5(C(=O)O)CC5)cc4)cc3s2)cnn1C)c1ccccc1 [IT119]	< 6.30	6.30 to 7.30	> 7.30

SMILES	pIC50 [1]	pEC50 [2]	pEC50 [3]
Cc1nsc(-c2cc3sc(-c4ccc(C5(C(=O)O)CC5)cc4)cc3s2)c1NC(=O)O[C@H](C)c1ccccc1 [IT120]	< 6.30	6.30 to 7.30	> 7.30
C[C@@H](OC(=O)Nc1c(-c2cc(F)c(-c3cc4sc(C5(C(=O)O)CC5)cc4s3)cc2F)cnn1C)c1ccccc1 [IT121]	< 6.30	> 7.30	> 7.30
Cc1noc(-c2ccc(-c3ccc(C(F)(F)C(=O)O)cc3)cc2)c1NC(=O)O[C@H](C)c1ccccc1 [IT123]	6.30 to 7.30	6.30 to 7.30	> 7.30
Cc1noc(-c2ccc(-c3ccc(S(C)(=O)=O)cc3)cc2)c1NC(=O)O[C@H](C)c1ccccc1 [IT124]	< 6.30	6.30 to 7.30	< 6.30
C[C@@H](OC(=O)Nc1ocnc1C#Cc1cc2sc(C3(C(=O)O)CC3)cc2s1)c1ccccc1 [IT125]	> 7.30	6.30 to 7.30	< 6.30
C[C@@H](OC(=O)Nc1c(-c2cc3sc(C#CC4(C(=O)O)CC4)cc3s2)cnn1C)c1ccccc1 [IT126]	> 7.30	6.30 to 7.30	> 7.30
Cc1noc(-c2ccc(-c3ccc(C4(C(=O)O)CC(F)(F)C4)cc3)cc2)c1NC(=O)O[C@H](C)c1ccccc1 [IT136]	6.30 to 7.30	6.30 to 7.30	> 7.30
Cc1noc(-c2ccc(-c3ccc(Oc4ccccc4C(=O)O)cc3)cc2)c1NC(=O)O[C@H](C)c1ccccc1 [IT155]	6.30 to 7.30	> 7.30	> 7.30
Cc1noc(-c2ccc(-c3ccc(C4(C(=O)O)CC4(F)F)cc3)cc2)c1NC(=O)O[C@H](C)c1ccccc1 (stereo partly drawn) [IT172]	6.30 to 7.30	> 7.30	> 7.30
Cc1noc(-c2ccc(-c3ccc(OC4(C(=O)O)CCC4)cc3)cc2)c1NC(=O)O[C@H](C)c1ccccc1 [IT196]	> 7.30	6.30 to 7.30	> 7.30
Cc1noc(-c2ccc(-c3ccc(OC4(C(=O)O)CC4)cc3)cc2)c1NC(=O)O[C@H](C)c1ccccc1 [IT197]	> 7.30	> 7.30	> 7.30
C[C@@H](OC(=O)Nc1c(-c2ccc(-c3ccc(Oc4ccccc4C(=O)O)cc3)cc2)cnn1C)c1ccccc1 [IT198]	> 7.30	6.30 to 7.30	> 7.30
CCc1nc(C(=O)O)c(Oc2ccc(-c3ccc(-c4onc(C)c4NC(=O)O[C@H](C)c4ccccc4)cc3)cc2)o1 [IT434]	6.30 to 7.30		> 7.30
C[C@@H](OC(=O)Nc1c(-c2ccc(-c3cc(F)c(OC(C)(C)C(=O)O)c(F)c3)cc2)cnn1C)c1ccccc1 [IT503]		< 6.30	6.30 to 7.30
Cc1noc(-c2ccc(-c3ccc(OC(C)(C)C(=O)O)c(F)c3)cc2)c1NC(=O)O[C@H](C)c1ccccc1 [IT506]		6.30 to 7.30	> 7.30
Cc1nsc(-c2ccc(-c3ccc(OC(C)(C)C(=O)O)c(F)c3)cc2)c1NC(=O)O[C@H](C)c1ccccc1 [IT507]		< 6.30	6.30 to 7.30
Cc1nsc(-c2ccc(-c3ccc(OC(C)(C)C(=O)O)cc3)cc2)c1NC(=O)O[C@H](C)c1ccccc1 [IT509]		< 6.30	6.30 to 7.30
C[C@@H](OC(=O)Nc1c(-c2ccc(-c3ccc(OC(C)(C)C(=O)O)cc3)cc2)cnn1C)c1ccccc1 [IT510]		< 6.30	6.30 to 7.30
C[C@@H](OC(=O)Nc1c(-c2ccc(-c3ccc(OC4(C(=O)O)CC4)cc3)cc2)cnn1C)c1ccccc1 [IT511]		6.30 to 7.30	> 7.30
C[C@@H](OC(=O)Nc1c(-c2ccc(-c3ccc(OC4(C(=O)O)CC4)cc3)cc2)oc2ccccc12)c1ccccc1 [IT512]		< 6.30	6.30 to 7.30
Cc1nsc(-c2ccc(-c3ccc(OC4(C(=O)O)CC4)cc3)cc2)c1NC(=O)O[C@H](C)c1ccccc1 [IT513]		6.30 to 7.30	> 7.30
